Source: publication PMC5609913, “Structure based design, synthesis and activity studies of small hybrid molecules as HDAC and G9a dual inhibitors” (Oncotarget, 2017)

What was measured:
[1] = test system: HDAC; experiment: Homogeneous cellular histone deacetylase assay, Hela; type: cell-based, human
Method: (§1) The enzymatic activity of HDAC was measured in intact cells using the homogeneous cellular assay method. A cell-permeable peptide Boc-K(Ac)-AMC used as the HDAC substrate, after deacetylation it is cleaved by trypsin to release the fluorescent 7-amino-4-methylcoumarin (AMC) and further quantified.
(§2) The manual assay was developed by Thomas's group. […] After 24 h, 9 μl inhibitors with different concentration were added to the HeLa cells and incubation was continued for 3 h under cell culture conditions. After this treatment period, 10 μl of a 2 mM stock solution of the substrate Boc-K(Ac)-AMC was added into the 96 well plates with Hela cells and inhibitors. […] A549 and K562 cell lines used the same method, respectively. IC50s were calculated using GraphPad Prizm statistical package with sigmoidal variable slope dose response curve fit.

[2] = test system: HDAC; experiment: Homogeneous cellular histone deacetylase assay, K562; type: cell-based, human
Method: as §1, §2

[3] = test system: HDAC; experiment: Homogeneous cellular histone deacetylase assay, A549; type: cell-based, human; settings: Supplementary Table 2; NA = not active up to highest concentration tested (100 μM); >100 = IC50 not reached at 100 μM
Method: as §1, §2

[4] = target: T1, Mouse histone methyltransferase G9a (969-1263) (Mus musculus, UniProt Q9Z148); experiment: MALDI-TOF methylation study of G9a enzymatic activity (H3 peptide, SAM); type: biochemical
T1 construct: The 6His-sumo mG9a (969-1263) protein was purified using the following procedure; 6His-sumo (N, cleaved yes); made in house; host or cells: Escherichia coli BL21 (DE3)
T1 sequence (Q9Z148 969-1263): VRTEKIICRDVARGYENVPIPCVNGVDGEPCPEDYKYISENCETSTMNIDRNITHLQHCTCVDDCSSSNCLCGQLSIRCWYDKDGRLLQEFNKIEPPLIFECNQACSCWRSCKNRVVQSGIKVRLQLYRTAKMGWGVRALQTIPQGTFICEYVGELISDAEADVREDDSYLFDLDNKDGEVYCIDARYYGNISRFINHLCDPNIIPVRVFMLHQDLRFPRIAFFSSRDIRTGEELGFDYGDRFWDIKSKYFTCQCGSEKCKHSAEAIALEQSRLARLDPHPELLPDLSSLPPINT
Method: Figure 3 compounds were synthesized from the commercially available starting material 1. An initial displacement reaction using a primary amine was used to introduce the C4 selective substitution, with the second displacement to introduce the linker at the C2 position following the microwave assisted reaction previously reported. Boc-protected ethylene diamine was treated with compound 2 at 160°C in a microwave for 10 min to yield product 3 with excellent yield. Afterward, the amine 3 was deprotected with TFA/DCM, and the free amine was treated with corresponding monomethyl esters (carbon chain 2-6) in the presence of coupling reagent EDCI and HOBt for about 8 hours to produce mono methyl ester substituted at the C2 position. The ester compounds further treated with hydroxylamine in water to get the corresponding hydroxamic acid derivatives, which were purified using reverse phase flash chromatography to obtain compounds 4-7 and 4a-7a in good yield. Synthesis of compounds in Figure 4 requires the C6 demethoxy core, and this was synthesized according to the reported procedure to yield 10 [45]. […] Compounds with the HDAC pharmacophore at the C4 position (Figure 2B) were synthesized from the starting material 1. […] A parallel synthesis and testing strategy were used in establishing the primary SAR, with the clear rationalization of the structure and activity at each stage we could reduce the synthetic targets. Initially, we evaluated the G9a potential after the introduction of HDAC pharmacophore. A biochemical assay using MALDI-TOF was used to visualize the effects of the synthesized compounds on G9a enzymatic activity, we carried out a biochemical reaction involving target enzyme G9a, methyl donor SAM and substrate H3 peptide at a concentration of 400 nM, 10 μM and 5 μM respectively.
Mouse histone methyltransferase G9a (969-1263) cDNA was amplified from the cDNA of BALB/c mouse thymus, and the fragment was sub-cloned into a vector with a 6His-sumo tag. The mouse G9a (mG9a) was expressed in Escherichia coli BL21 (DE3) by the addition of 1 mM isopropyl-1-thio-D-galactopyranoside (IPTG) and incubated overnight at 16°C.
The in vitro inhibition of G9a by the synthesized compounds were measured by MALDI-TOF mass spectrum (Bruker MALDI TOF/TOF Analyzer). 400 nM purified G9a, 5 μM synthesized histone H3 (1-21) and 10 μM non-radioactive S-adenosyl methionine (Sigma) were added in reaction buffer (50 mM HEPES pH 8.0, 5 μg/ml BSA and 0.1% β-Mercaptoethanol) with or without inhibitors (5 μM). The reaction was incubated at room temperature for 30 min, and stopped by TFA. 1 μl of the sample was mixed with CHCA matrix and m/z peaks were obtained at reflection positive mode. The results of mass spectrum were analyzed using the Bruker flex analysis software, a detailed description of data processing is provided as supplementary information (S3).
[…]
MALDI spectrums were collected using Bruker flex % conversion to product is also C, from this to get the control software and analyzed by flex analysis. After %maximal activity (%MA), C was compared to the % labelling each cluster peaks of H3K9Me0, H3K9Me1 conversion when no inhibitor was used (D). and H3K9Me2 for all of the tested concentrations, area Finally % inhibition was found by subtracting under the cluster (AUC) were extracted by using the same %MA from 100 […]
flex analysis software. % abundance of each peak was Example: % methylation levels and % inhibition calculated by following formula, when used 5 μM compound 14
A = % Abundance of (H3K9Me0) = area of A = 13.09
B = % Abundance of (H3K9Me1) = area of % conversion when no inhibitor was used D = 84.43 H3K9Me1/ (area of H3K9Me0+area of H3K9Me1 + area (average of six measurements) […]

[5] = test system: A549 cells; experiment: Cell anti-proliferation / toxicity assay (CCK-8), A549; type: cell-based; settings: Homo sapiens
Method: (§3) Cell anti-proliferation assays were performed to determine the toxicity of these inhibitors. […] These compounds were further evaluated against the control cell line HEK293 to test their toxicity with a non-cancerous cell line.
(§4) And then the cells were exposed to the different inhibitors with various concentrations for 72 h. […] EC50s were calculated using GraphPad Prizm statistical package with sigmoidal variable slope dose response curve fit.

[6] = test system: HEK293 cells; experiment: Cell anti-proliferation / toxicity assay (CCK-8), HEK293 normal cell line; type: cell-based; settings: Homo sapiens, Table 6, 72 h
Method: as §3, §4

[7] = Supplementary Table 2, NA = not active up to highest concentration tested (100 μM), >100 = IC50 not reached at 100 μM, read-out: IC50-HDAC Hela
[8] = Supplementary Table 2, NA = not active up to highest concentration tested (100 μM), >100 = IC50 not reached at 100 μM, read-out: IC50-HDAC K562
[9] = Supplementary Table 1, inhibitor 5 μM, 30 min, average of 3 values

Compound | IC50 [1, 7] [µM] | IC50 [2, 8] [µM] | IC50 [3] [µM] | inhibition at 5 µM [4, 9] [%] | also measured
COc1ccc2c(NC3CCN(Cc4ccccc4)CC3)nc(NCCNC(=O)CCCCC(=O)NO)nc2c1 [Compound 15, N1-(2-((4-((1-benzylpiperidin-4-yl)amino)-7-methoxyquinazolin-2-yl)amino)ethyl)-N6-hydroxyadipamide] | > 100 | > 100 | > 100 | 69.1 ± 24.5 | 
COc1ccc2c(NC3CCN(Cc4ccccc4)CC3)nc(NCCNC(=O)CCCC(=O)NO)nc2c1 [Compound 16, N1-(2-((4-((1-benzylpiperidin-4-yl)amino)-7-methoxyquinazolin-2-yl)amino)ethyl)-N5-hydroxyglutaramide] | > 100 | > 100 | > 100 | 40.3 ± 13.8 | EC50 ([5]; Supplementary Table 4, 72 h, NA = not active up to highest concentration tested (100 μM)): > 100 µM
COc1cc2nc(N3CCCN(C)CC3)nc(NC3CCN(C(=O)CCCCCCC(=O)NO)CC3)c2cc1OC [Compound 19, 8-(4-((6,7-dimethoxy-2-(4-methyl-1,4-diazepan-1-yl)quinazolin-4-yl)amino)piperidin-1-yl)-N-hydroxy-8-oxooctanamide] | > 100 | > 100 | > 100 | 10.7 ± 25.9 | 
COc1ccc2c(NC3CCN(Cc4ccccc4)CC3)nc(NCCNC(=O)CCCCCC(=O)NO)nc2c1 [Compound 14, N1-(2-((4-((1-benzylpiperidin-4-yl)amino)-7-methoxyquinazolin-2-yl)amino)ethyl)-N7-hydroxyheptanediamide] |  |  | > 100 | 29.7 ± 23.3 | EC50 ([5]; Table 6, 72 h, >100 = not reached at highest tested concentration (100 μM)): 36.2 ± 1.76 µM; EC50 [6]: 19.95 ± 0.19 µM; IC50 ([1]; Table 3, Boc-K(Ac)-AMC substrate, intact Hela cells, read-out: Hela IC50): 13.8 ± 1.22 µM; IC50 ([2]; Table 3, Boc-K(Ac)-AMC substrate, intact K562 cells, read-out: K562 IC50): 5.74 ± 1.23 µM; inhibition at 5 µM ([4]; worked example, single spectrum, 5 μM compound): 69.5%; A = % Abundance of (H3K9Me0) ([4]; worked example, 5 μM compound): 13.09%; B = % Abundance of (H3K9Me1) ([4]; worked example, 5 μM compound): 61.18%; C = % Abundance of (H3K9Me2) (% conversion to product) ([4]; worked example, 5 μM compound): 25.72%; activity at 5 µM ([4]; worked example, 5 μM compound, relative to no inhibitor (84.43), read-out: % maximal activity (%MA)): 30.5%
COc1cc2nc(NCCNC(=O)CCCCCCC(=O)NO)nc(NC3CCN(C)CC3)c2cc1OC [Compound 4, N1-(2-((6,7-dimethoxy-4-((1-methylpiperidin-4-yl)amino)quinazolin-2-yl)amino)ethyl)-N8-hydroxyoctanediamide] |  |  |  | 27 ± 12.2 | 
COc1ccc2c(NCCNC(=O)CCCCCC(=O)NO)nc(N3CCCN(C)CC3)nc2c1 [Compound 22, N1-hydroxy-N7-(2-((7-methoxy-2-(4-methyl-1,4-diazepan-1-yl)quinazolin-4-yl)amino)ethyl)heptanediamide] | > 100 | > 100 | > 100 | 40.3 ± 15.3 | 
COc1cc2nc(NCCNC(=O)CCCCCCC(=O)NO)nc(NC3CCN(C(C)C)CC3)c2cc1OC [Compound 4a, N1-hydroxy-N8-(2-((4-((1-isopropylpiperidin-4-yl)amino)-6,7-dimethoxyquinazolin-2-yl)amino)ethyl)octanediamide] |  |  |  | 11.2 ± 3.68 | 
COc1cc2nc(N3CCCN(C)CC3)nc(NC3CCN(C(=O)CCCCCC(=O)NO)CC3)c2cc1OC [Compound 20, 7-(4-((6,7-dimethoxy-2-(4-methyl-1,4-diazepan-1-yl)quinazolin-4-yl)amino)piperidin-1-yl)-N-hydroxy-7-oxoheptanamide] | > 100 | > 100 | > 100 | 14.6 ± 15.8 | 
COc1cc2nc(NCCNC(=O)CCCC(=O)NO)nc(NC3CCN(C)CC3)c2cc1OC [Compound 7, N1-(2-((6,7-dimethoxy-4-((1-methylpiperidin-4-yl)amino)quinazolin-2-yl)amino)ethyl)-N5-hydroxyglutaramide] |  |  |  | 19.6 ± 20.9 | 

Second part, led by results:

IC50 [1, 7] [µM] | IC50 [2, 8] [µM] | IC50 [3] [µM] | inhibition at 5 µM [4, 9] [%] | Compound | also measured
 |  |  | 47.5 ± 9.32 | COc1cc2nc(NCCNC(=O)CCCCCC(=O)NO)nc(NC3CCN(C(C)C)CC3)c2cc1OC [Compound 5a, N1-hydroxy-N7-(2-((4-((1-isopropylpiperidin-4-yl)amino)-6,7-dimethoxyquinazolin-2-yl)amino)ethyl)heptanediamide] | 
 |  |  | 38 ± 4.99 | COc1cc2nc(NCCNC(=O)CCCCCC(=O)NO)nc(NC3CCN(Cc4ccccc4)CC3)c2cc1OC [Compound 5b, N1-(2-((4-((1-benzylpiperidin-4-yl)amino)-6,7-dimethoxyquinazolin-2-yl)amino)ethyl)-N7-hydroxyheptanediamide] | HDAC inhibition (in words) ([1]; candidates tested in both Hela and K562 cell lines, compared with Compound 14): did not show decent inhibition of HDAC
> 100 | > 100 | > 100 | 47.9 ± 12.9 | COc1ccc2c(NC3CCN(C)CC3)nc(NCCNC(=O)CCCCC(=O)NO)nc2c1 [Compound 15a, N1-hydroxy-N6-(2-((7-methoxy-4-((1-methylpiperidin-4-yl)amino)quinazolin-2-yl)amino)ethyl)adipamide] | 
 |  |  | 15 ± 15.7 | COc1cc2nc(NCCNC(=O)CCCC(=O)NO)nc(NC3CCN(C(C)C)CC3)c2cc1OC [Compound 7a, N1-hydroxy-N5-(2-((4-((1-isopropylpiperidin-4-yl)amino)-6,7-dimethoxyquinazolin-2-yl)amino)ethyl)glutaramide] | 
> 100 | > 100 | > 100 | 40.3 ± 13.8 | COc1ccc2c(NC3CCN(C)CC3)nc(NCCNC(=O)CCCC(=O)NO)nc2c1 [Compound 16a, N1-hydroxy-N5-(2-((7-methoxy-4-((1-methylpiperidin-4-yl)amino)quinazolin-2-yl)amino)ethyl)glutaramide] | 
